From US10660967B2, “Curcumin conjugates and methods of use thereof” (priority 2016, dated 2020)

Tested on: carrageenan induced paw edema
Assay: Anti-inflammatory activity: acute carrageenan induced paw edema in rats
Type: in vivo, Wister rats
Conditions: 10 mg kg^−1 indomethacin mol equivalent; for % inhibition of edema / Mean edema thickness: intraperitoneally; for Mean edema thickness: mean ± SE; for Potency (% inhibition of edema relative to that of indomethacin reference standard): at 4 h effect
Protocol: The anti-inflammatory activity of the tested compounds was determined in vivo by the acute carrageenan induced paw edema standard method in rats. See, Naumov, et al., Bioorg. Med. Chem. Lett, 25: 2314-2320 (2015), Tiwari, et al., Org. Biomol. Chem, 12: 7238-7249 (2014), Girgis, et al., Eur. J. Med. Chem, 50: 1-8 (2012), Barsoum, et al., Eur. J. Med. Chem, 44: 2172-2177 (2009), Girgis, et al., Eur. J. Med. Chem, 44: 1972-1977 (2009), Girgis, et al., Eur. J. Med. Chem, 44: 1257-1264 (2009), Girgis, et al., Eur. J. Med. Chem, 44: 91-100 (2009), Girgis, et al., Eur. J. Med. Chem, 43: 2116-2121 (2008), Girgis, et al., Bioorg. Med. Chem, 14: 8527-8532 (2006), and Barsoum, et al., Bioorg. Med. Chem, 14: 3929-3937 (2006).
Adult Wister rats of either sex (pregnant female animals were excluded) weighing 120-150 g were divided into 18 groups of 6 animals each. […] The control group was given DMSO only. Carrageenan paw edema was induced by subcutaneous injection of freshly prepared 1% solution of carrageenan in saline (0.9%, 0.1 ml per rat) into subplantar tissue of the right hind paw of rats. The thickness of the paw was measured (in mm) after successive time intervals (1, 2,3,4 and 24 h) and compared with the initial hind paw thickness of each rat for determining the edema thickness. Data were collected, checked, revised and analyzed. Quantitative variables from normal distribution were expressed as means±SE “standard error”. The anti-inflammatory activity was expressed as percentage inhibition of edema thickness in treated animals in comparison with the control group according to eqn. (1)
Where, Vc and Vt are the mean of edema paw thickness for the control and tested compound treated animal groups, respectively.

Compound	% inhibition of edema (1 h)	Mean edema thickness (1 h)	% inhibition of edema (2 h)	Mean edema thickness (2 h)	% inhibition of edema (3 h)	Mean edema thickness (3 h)	% inhibition of edema (4 h)	Mean edema thickness (4 h)	% inhibition of edema (24 h)	Mean edema thickness (24 h)	Potency (% inhibition of edema relative to that of indomethacin reference standard)
COc1ccc2c(c1)c(CC(=O)O)c(C)n2C(=O)c1ccc(Cl)cc1 [Compound 2]	53%	1.11 ± 0.12 mm	59%	0.85 ± 0.09 mm	67%	0.59 ± 0.06 mm	87%	0.18 ± 0.03 mm	86%	0.12 ± 0.02 mm	100
CC(C)Cc1ccc(C(C)C(=O)O)cc1 (stereo not shown) [Compound 3]	20%	1.93 ± 0.21 mm	60%	0.82 ± 0.13 mm	65%	0.63 ± 0.09 mm	79%	0.29 ± 0.01 mm	14%	0.71 ± 0.04 mm	–
COc1cc(/C=C/C(=O)CC(=O)/C=C/c2ccc(O)c(OC)c2)ccc1O [Compound 4]	12%	2.12 ± 0.19 mm	60%	0.82 ± 0.11 mm	75%	0.45 ± 0.08 mm	85%	0.21 ± 0.08 mm	36%	0.53 ± 0.10 mm	98
COc1cc(/C=C/C(=O)CC(=O)/C=C/c2ccc(OC(=O)CNC(=O)OCc3ccccc3)c(OC)c2)ccc1OC(=O)CNC(=O)OCc1ccccc1 [Compound 5]	64%	0.87 ± 0.16 mm	32%	1.41 ± 0.19 mm	37%	1.13 ± 0.22 mm	34%	0.92 ± 0.20 mm	0%	0.83 ± 0.19 mm	39
COc1cc(/C=C/C(=O)CC(=O)/C=C/c2ccc(OC(=O)[C@H](C)NC(=O)OCc3ccccc3)c(OC)c2)ccc1OC(=O)[C@H](C)NC(=O)OCc1ccccc1 [Compound 6]	56%	1.05 ± 0.24 mm	23%	1.59 ± 0.21 mm	22%	1.40 ± 0.19 mm	12%	1.23 ± 0.25 mm	0%	0.83 ± 0.17 mm	14
COc1cc(/C=C/C(=O)CC(=O)/C=C/c2ccc(OC(=O)C(C)NC(=O)OCc3ccccc3)c(OC)c2)ccc1OC(=O)C(C)NC(=O)OCc1ccccc1 (stereo not shown) [Compound 7]	72%	0.67 ± 0.09 mm	87%	0.26 ± 0.07 mm	97%	0.05 ± 0.02 mm	100%	0.00 ± 0.00 mm	100%	0.00 ± 0.00 mm	115
COc1cc(/C=C/C(=O)CC(=O)/C=C/c2ccc(OC(=O)[C@@H](NC(=O)OCc3ccccc3)C(C)C)c(OC)c2)ccc1OC(=O)[C@@H](NC(=O)OCc1ccccc1)C(C)C [Compound 8]	51%	1.17 ± 0.26 mm	20%	1.65 ± 0.23 mm	19%	1.45 ± 0.20 mm	12%	1.23 ± 0.19 mm	2%	0.81 ± 0.11 mm	14
COc1cc(/C=C/C(=O)CC(=O)/C=C/c2ccc(OC(=O)[C@H](CC(C)C)NC(=O)OCc3ccccc3)c(OC)c2)ccc1OC(=O)[C@H](CC(C)C)NC(=O)OCc1ccccc1 [Compound 9]	34%	1.59 ± 0.18 mm	10%	1.85 ± 0.21 mm	10%	1.61 ± 0.18 mm	11%	1.25 ± 0.09 mm	1%	0.82 ± 0.08 mm	13
COc1cc(/C=C/C(=O)CC(=O)/C=C/c2ccc(OC(=O)[C@H](CCSC)NC(=O)OCc3ccccc3)c(OC)c2)ccc1OC(=O)[C@H](CCSC)NC(=O)OCc1ccccc1 [Compound 10]	76%	0.58 ± 0.15 mm	80%	0.41 ± 0.11 mm	86%	0.25 ± 0.08 mm	88%	0.17 ± 0.02 mm	94%	0.05 ± 0.01 mm	101
COc1cc(/C=C/C(=O)CC(=O)/C=C/c2ccc(OC(=O)[C@H](Cc3ccccc3)NC(=O)OCc3ccccc3)c(OC)c2)ccc1OC(=O)[C@H](Cc1ccccc1)NC(=O)OCc1ccccc1 [Compound 11]	59%	1.00 ± 0.07 mm	24%	1.56 ± 0.09 mm	9%	1.63 ± 0.16 mm	5%	1.38 ± 0.10 mm	1%	0.82 ± 0.13 mm	6
COc1cc(/C=C/C(=O)CC(=O)/C=C/c2ccc(OC(=O)[C@H](Cc3c[nH]c4ccccc34)NC(=O)OCc3ccccc3)c(OC)c2)ccc1OC(=O)[C@H](Cc1c[nH]c2ccccc12)NC(=O)OCc1ccccc1 [Compound 12]	37%	1.52 ± 0.27 mm	28%	1.48 ± 0.22 mm	24%	1.36 ± 0.26 mm	12%	1.23 ± 0.19 mm	1%	0.82 ± 0.17 mm	14
COc1cc(/C=C/C(=O)CC(=O)/C=C/c2ccc(OC(=O)CNC(=O)OCC3c4ccccc4-c4ccccc43)c(OC)c2)ccc1OC(=O)CNC(=O)OCC1c2ccccc2-c2ccccc21 [Compound 13]	40%	1.45 ± 0.15 mm	62%	0.78 ± 0.16 mm	74%	0.47 ± 0.11 mm	79%	0.29 ± 0.04 mm	82%	0.15 ± 0.02 mm	91
COc1cc(/C=C/C(=O)CC(=O)/C=C/c2ccc(OC(=O)[C@H](C)NC(=O)OCC3c4ccccc4-c4ccccc43)c(OC)c2)ccc1OC(=O)[C@H](C)NC(=O)OCC1c2ccccc2-c2ccccc21 [Compound 14]	12%	2.12 ± 0.29 mm	23%	1.59 ± 0.15 mm	43%	1.02 ± 0.17 mm	56%	0.62 ± 0.09 mm	51%	0.41 ± 0.05 mm	64
